≈ marks a conversion by molar mass, not a printed value.
These molecules were tested on Mycobacterium tuberculosis (assay: Antimycobacterial activity against Mycobacterium tuberculosis H37Rv assessed as inhibition of bacterial growth by resazurin dye based fluorescence analysis).
Assay type: functional

Compound | MIC
O=S(=O)(NCCO)c1ccc(-c2nnn(Cc3ccc(F)cn3)n2)cc1 | 0.1 µM (≈ 0.0378 µg/mL)
CCNS(=O)(=O)c1ccc(-c2nnn(Cc3ccncc3)n2)cc1 | 0.1 µM (≈ 0.0344 µg/mL)
C[C@@H](O)CNS(=O)(=O)c1ccc(-c2nnn(Cc3ccc(F)cn3)n2)cc1 | 0.1 µM (≈ 0.0392 µg/mL)
CNS(=O)(=O)c1ccc(-c2nnn(Cc3ccc(F)cc3)n2)cc1 | 0.1 µM (≈ 0.0347 µg/mL)
O=S(=O)(NCC(O)CO)c1ccc(-c2nnn(Cc3ccc(F)cc3)n2)cc1 (stereo not given) | 0.1 µM (≈ 0.0407 µg/mL)
NC(=O)CNS(=O)(=O)c1ccc(-c2nnn(CC3CCC(F)(F)CC3)n2)cc1 | 0.1 µM (≈ 0.0414 µg/mL)
O=S(=O)(NCCO)c1ccc(-c2nnn(CC3CCCCO3)n2)cc1 (stereo not given) | 0.1 µM (≈ 0.0367 µg/mL)
COc1ccc(Cn2nnc(-c3ccc(S(=O)(=O)NC[C@@H](C)O)cc3)n2)cc1 | 0.1 µM (≈ 0.0403 µg/mL)
O=S(=O)(NC(CO)CO)c1ccc(-c2nnn(Cc3ccc(F)cc3)n2)cc1 | 0.1 µM (≈ 0.0407 µg/mL)
O=S(=O)(NCCO)c1ccc(-c2nnn(Cc3ccc(F)cc3)n2)cc1 | 0.1 µM (≈ 0.0377 µg/mL)
COc1ccc(Cn2nnc(-c3ccc(S(=O)(=O)NC[C@@H](C)O)cc3)n2)nc1 | 0.1 µM (≈ 0.0404 µg/mL)
C[C@@H](O)CNS(=O)(=O)c1ccc(-c2nnn(Cc3ccc(F)cc3)n2)cc1 | 0.1 µM (≈ 0.0391 µg/mL)
N#Cc1ccc(Cn2nnc(-c3ccc(S(=O)(=O)NCCO)cc3)n2)cc1 | 0.1 µM (≈ 0.0384 µg/mL)
CCc1ccc(Cn2nnc(-c3ccc(S(=O)(=O)NCCO)cc3)n2)cc1 | 0.1 µM (≈ 0.0387 µg/mL)
NC(=O)CNS(=O)(=O)c1ccc(-c2nnn(Cc3ccc(F)cn3)n2)cc1 | 0.1 µM (≈ 0.0391 µg/mL)
N#Cc1ccc(Cn2nnc(-c3ccc(S(=O)(=O)NCCO)cc3)n2)nc1 | 0.1 µM (≈ 0.0385 µg/mL)
O=S(=O)(NCCO)c1ccc(-c2nnn(Cc3ccncc3)n2)cc1 | 0.1 µM (≈ 0.036 µg/mL)
O=S(=O)(NCCO)c1ccc(-c2nnn(Cc3ccncn3)n2)cc1 | 0.1 µM (≈ 0.0361 µg/mL)
O=S(=O)(NCCO)c1ccc(-c2nnn(CC3CCC(F)(F)CC3)n2)cc1 | 0.1 µM (≈ 0.0401 µg/mL)
C[C@@H](O)CNS(=O)(=O)c1ccc(-c2nnn(Cc3ccncc3)n2)cc1 | 0.1 µM (≈ 0.0374 µg/mL)

Compound | MIC
Cc1ccc(Cn2nnc(-c3ccc(S(=O)(=O)NC[C@@H](C)O)cc3)n2)nc1 | 0.1 µM (≈ 0.0388 µg/mL)
O=S(=O)(NC(CO)CO)c1ccc(-c2nnn(Cc3ccncc3)n2)cc1 | 0.1 µM (≈ 0.039 µg/mL)
CNS(=O)(=O)c1ccc(-c2nnn(Cc3ccncc3)n2)cc1 | 0.1 µM (≈ 0.033 µg/mL)
Cc1nccc(Cn2nnc(-c3ccc(S(=O)(=O)NCCO)cc3)n2)n1 | 0.1 µM (≈ 0.0375 µg/mL)
NC(=O)CNS(=O)(=O)c1ccc(-c2nnn(Cc3ccc(F)c(F)c3)n2)cc1 | 0.1 µM (≈ 0.0408 µg/mL)
O=S(=O)(NCCO)c1ccc(-c2nnn(Cc3ccc(C(F)F)cc3)n2)cc1 | 0.1 µM (≈ 0.0409 µg/mL)
Cc1ccc(Cn2nnc(-c3ccc(S(=O)(=O)NCCO)cc3)n2)nc1 | 0.1 µM (≈ 0.0374 µg/mL)
COc1ccc(Cn2nnc(-c3ccc(S(=O)(=O)NCC(N)=O)cc3)n2)cc1 | 0.1 µM (≈ 0.0402 µg/mL)
Cc1cc(Cn2nnc(-c3ccc(S(=O)(=O)NCCO)cc3)n2)ccn1 | 0.1 µM (≈ 0.0374 µg/mL)
Cc1ccc(Cn2nnc(-c3ccc(S(=O)(=O)NCC(N)=O)cc3)n2)cc1 | 0.1 µM (≈ 0.0386 µg/mL)
COc1ccc(Cn2nnc(-c3ccc(S(=O)(=O)NCCO)cc3)n2)nc1 | 0.1 µM (≈ 0.039 µg/mL)
C[C@H](O)CNS(=O)(=O)c1ccc(-c2nnn(Cc3ccc(F)cc3)n2)cc1 | 0.1 µM (≈ 0.0391 µg/mL)
O=S(=O)(NCCO)c1ccc(-c2nnn(Cc3ncc(F)cc3F)n2)cc1 | 0.1 µM (≈ 0.0396 µg/mL)
Cc1cccc(Cn2nnc(-c3ccc(S(=O)(=O)NCCO)cc3)n2)n1 | 0.1 µM (≈ 0.0374 µg/mL)
O=S(=O)(NCCO)c1ccc(-c2nnn(Cc3ccc(Cl)cc3)n2)cc1 | 0.1 µM (≈ 0.0394 µg/mL)
COc1ccc(Cn2nnc(-c3ccc(S(=O)(=O)NCCO)cc3)n2)cc1F | 0.1 µM (≈ 0.0407 µg/mL)
O=S(=O)(NCCO)c1ccc(-c2nnn(Cc3ccc(Cl)cn3)n2)cc1 | 0.1 µM (≈ 0.0395 µg/mL)
C[C@@H](O)CNS(=O)(=O)c1ccc(-c2nnn(CC3CCC(F)(F)CC3)n2)cc1 | 0.1 µM (≈ 0.0415 µg/mL)
COc1ccc(Cn2nnc(-c3ccc(S(=O)(=O)NCCO)cc3)n2)cc1 | 0.1 µM (≈ 0.0389 µg/mL)

The molecules below were run on Mycobacterium tuberculosis (assay: Antimycobacterial activity against Mycobacterium tuberculosis H37Rv).
Assay type: functional

Compound | MIC | MIC90 | MIC99
Cc1ccc(-c2nnc(S)o2)cc1 | 9.6 µg/mL (≈ 49.9 µM) | – | –
COC(=O)c1c(NC(=O)c2c(F)c(F)c(F)c(F)c2F)sc2c1CCCCC2 | 1 µg/mL (≈ 2.38 µM) | – | –
Sc1nnc(-c2ccccc2Cl)o1 | 21.2 µg/mL (≈ 99.7 µM) | – | –
Sc1nnc(-c2ccc(Cl)cc2)o1 | 5.3 µg/mL (≈ 24.9 µM) | – | –
Fc1ccc(-c2nnc(S)o2)cc1 | > 25 µg/mL | – | –
Sc1nnc(-c2ccccc2Br)o1 | > 25 µg/mL | – | –
CCOC(=O)c1c(NC(=O)c2c(F)c(F)c(F)c(F)c2F)sc(C(N)=O)c1C | 0.5 µg/mL (≈ 1.18 µM) | – | –
S=c1[nH]nc(C2CCCCC2)o1 | > 25 µg/mL | – | –
CCOC(=O)c1c(NC(=O)c2c(F)c(F)c(F)c(F)c2F)sc2c1CCCCC2 | 1.9 µg/mL (≈ 4.38 µM) | – | –
Nc1ccsc1-c1nnc(S)o1 | 21.3 µg/mL (≈ 107 µM) | – | –
NC(=O)N1N=C(c2ccc3oc(N)nc3c2)CC1c1cccs1 (stereo not given) | 6.25 µg/mL (≈ 19.1 µM) | – | –
O=[N+]([O-])c1ccc(-c2nnc(S)o2)cc1 | 3.1 µg/mL (≈ 13.9 µM) | – | –
CC(=O)N1/C(=C/c2cccc(-c3cnn(C)c3)c2)C(=O)c2ccccc21 | – | 4.93 µM (≈ 1.69 µg/mL) | 5.61 µM (≈ 1.93 µg/mL)
CC(=O)N1/C(=C/c2ccc(Oc3ccc(Cl)cc3)cc2)C(=O)c2cc(Cl)ccc21 | – | 6.02 µM (≈ 2.55 µg/mL) | 6.87 µM (≈ 2.91 µg/mL)

— ChEMBL document CHEMBL5244273, “Tuberculosis: An Overview of the Immunogenic Response, Disease Progression, and Medicinal Chemistry Efforts in the Last Decade toward the Development of Potential Drugs for Extensively Drug-Resistant Tuberculosis Strains” (J Med Chem, 2021)
